Source: patent US11390604B2 (Hoffmann-La Roche Inc., priority 2019, dated 2022)
Where a name gives a salt, the structure may show the parent alone.

Tested on: Acinetobacter baumannii ATCC 17961
Assay: Antimicrobial susceptibility testing: 90% growth inhibitory concentration (IC90) determination
Format: cell-based
Details: ATCC17961, Acinetobacter baumannii ATCC 17961, Iso-Sensitest broth, read-out: ATCC 17961 IC90
Procedure, shortened: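 Growth was followed kinetically by OD600 at 20-min intervals for 16 h at 35±2 °C, with ~5×10^5 CFU/ml in Iso-Sensitest broth. Compounds were tested as twofold dilutions (e.g. 50–0.097 μM final). The concentration giving 90% inhibition of log-phase growth was reported.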

Row | SMILES | IC90
1 | Cn1c(-c2cn(C3CC3)nc2C(F)(F)F)cnc1C(=O)Nc1ccc(C(=O)N[C@H]2[C@@H]3CN(C(=O)N[C@@H]4CCC[C@@H]4N)C[C@@H]32)c(Cl)c1 [Example 334, exo-N-((1R,2S)-2-aminocyclopentyl)-6-(2-chloro-4-(5-(1-cyclopropyl-3-(trifluoromethyl)-1H-pyrazol-4-yl)-1-methyl-1H-imidazole-2-carboxamido)benzamido)-3-azabicyclo[3.1.0]hexane-3-carboxamide formate] | 0.423 µM
2 | Cn1c(-c2cn(C3CC3)nc2C(F)(F)F)cnc1C(=O)Nc1ccc(C(=O)N2CCN(S(=O)(=O)N3CCNCC3)CC2)c(Cl)c1 [Example 338, N-(3-chloro-4-(4-(piperazin-1-ylsulfonyl)piperazine-1-carbonyl)phenyl)-5-(1-cyclopropyl-3-(trifluoromethyl)-1H-pyrazol-4-yl)-1-methyl-1H-imidazole-2-carboxamide formate] | 0.427 µM
3 | Cn1c(-c2cn(C3CC3(F)F)nc2C(F)(F)F)cnc1C(=O)Nc1ccc(C(=O)NC2CNCC2O)c(Cl)c1 (centres unmarked) [Example 341, N-(3-chloro-4-((4-hydroxypyrrolidin-3-yl)carbamoyl)phenyl)-5-(1-(2,2-difluorocyclopropyl)-3-(trifluoromethyl)-1H-pyrazol-4-yl)-1-methyl-1H-imidazole-2-carboxamide formate] | 0.43 µM
4 | C#CCn1cc(-c2cnc(C(=O)Nc3ccc(S(C)(=O)=NCCCN)c(C)c3)n2C)c(C(F)(F)F)n1 (centres unmarked) [Example 342, N-[4-[N-(3-aminopropyl)-S-methyl-sulfonimidoyl]-3-methyl-phenyl]-1-methyl-5-[1-prop-2-ynyl-3-(trifluoromethyl)pyrazol-4-yl]imidazole-2-carboxamide; formic acid] | 0.442 µM
5 | Cn1c(-c2cn(C3CC3(F)F)nc2C(F)(F)F)cnc1C(=O)Nc1ccc(C(=O)NC2(C)CCNCC2)c(Cl)c1 (centres unmarked) [Example 344, N-(3-chloro-4-((4-methylpiperidin-4-yl)carbamoyl)phenyl)-5-(1-(2,2-difluorocyclopropyl)-3-(trifluoromethyl)-1H-pyrazol-4-yl)-1-methyl-1H-imidazole-2-carboxamide formate] | 0.443 µM
6 | Cn1c(-c2cn(CC#N)nc2C(F)(F)F)cnc1C(=O)Nc1ccc(C(=O)NCCCCN)c(Cl)c1 [Example 345, N-(4-((4-aminobutyl)carbamoyl)-3-chlorophenyl)-5-(1-(cyanomethyl)-3-(trifluoromethyl)-1H-pyrazol-4-yl)-1-methyl-1H-imidazole-2-carboxamide tris(2,2,2-trifluoroacetate)] | 0.444 µM
7 | Cc1cc(NC(=O)c2ncc(-c3cn(CC(F)F)nc3C(F)(F)F)n2C)ccc1S(C)(=O)=NCCCN (centres unmarked) [Example 353, N-[4-[N-(3-aminopropyl)-S-methyl-sulfonimidoyl]-3-methyl-phenyl]-5-[1-(2,2-difluoroethyl)-3-(trifluoromethyl)pyrazol-4-yl]-1-methyl-imidazole-2-carboxamide; formic acid] | 0.462 µM
8 | CCc1cc(NC(=O)c2ncc(-c3cn(CC(F)F)nc3C(F)(F)F)n2C)ccc1C(=O)NCCCCCN [Example 356, N-(4-((5-aminopentyl)carbamoyl)-3-ethylphenyl)-5-(1-(2,2-difluoroethyl)-3-(trifluoromethyl)-1H-pyrazol-4-yl)-1-methyl-1H-imidazole-2-carboxamide hydrochloride] | 0.466 µM
9 | CN(C)CCN(C)C1CCN(C(=O)c2ccc(NC(=O)c3ncc(-c4cn(C5CC5)nc4C(F)(F)F)n3C)cc2Cl)CC1 [Example 357, N-(3-chloro-4-(4-((2-(dimethylamino)ethyl)(methyl)amino)piperidine-1-carbonyl)phenyl)-5-(1-cyclopropyl-3-(trifluoromethyl)-1H-pyrazol-4-yl)-1-methyl-1H-imidazole-2-carboxamide] | 0.466 µM

Now from value to compound:

Row | IC90 | SMILES
10 | 0.421 µM | CCn1cc(-c2cnc(C(=O)Nc3ccc(C(=O)N4CCN(C(=O)CN)CC4)c(Cl)c3)n2C)c(C(F)(F)F)n1 [Example 330, N-[4-[4-(2-aminoacetyl)piperazine-1-carbonyl]-3-chlorophenyl]-5-[1-ethyl-3-(trifluoromethyl)pyrazol-4-yl]-1-methylimidazole-2-carboxamide;hydrochloride]
11 | 0.422 µM | Cn1c(-c2cn(CCOC(F)(F)F)nc2C(F)(F)F)cnc1C(=O)Nc1ccc(C(=O)N2CCN(C(=O)C3CCNCC3)CC2)c(Cl)c1 [Example 332, N-(3-chloro-4-(4-(piperidine-4-carbonyl)piperazine-1-carbonyl)phenyl)-1-methyl-5-(1-(2-(trifluoromethoxy)ethyl)-3-(trifluoromethyl)-1H-pyrazol-4-yl)-1H-imidazole-2-carboxamide hydrochloride]
12 | 0.426 µM | Cn1c(-c2cn(CC3CCC3)nc2C(F)(F)F)cnc1C(=O)Nc1ccc(C(=O)N2CCN(C(=O)[C@@H]3C[C@@H](O)CN3)CC2)c(Cl)c1 [Example 335, N-(3-chloro-4-(4-((2S,4R)-4-hydroxypyrrolidine-2-carbonyl)piperazine-1-carbonyl)phenyl)-5-(1-(cyclobutylmethyl)-3-(trifluoromethyl)-1H-pyrazol-4-yl)-1-methyl-1H-imidazole-2-carboxamide bis(2,2,2-trifluoroacetate)]
13 | 0.426 µM | Cn1c(-c2cn(CC(F)F)nc2C(F)(F)F)cnc1C(=O)Nc1ccc(C(=O)N2CCNCC2)c(Cl)c1 [Example 336, N-(3-chloro-4-(piperazine-1-carbonyl)phenyl)-5-(1-(2,2-difluoroethyl)-3-(trifluoromethyl)-1H-pyrazol-4-yl)-1-methyl-1H-imidazole-2-carboxamide formate]
14 | 0.427 µM | Cn1c(-c2cn(C3CC3)nc2C(F)(F)F)cnc1C(=O)Nc1ccc(C(=O)N2CCC(C(=O)N[C@H]3C[C@H](N)C3)CC2)c(Cl)c1 [Example 339, N-(3-aminocyclobutyl)-1-[2-chloro-4-[[5-[1-cyclopropyl-3-(trifluoromethyl)pyrazol-4-yl]-1-methyl-imidazole-2-carbonyl]amino]benzoyl]piperi-dine-4-carboxamide; formic acid]
15 | 0.428 µM | CCc1cc(NC(=O)c2ncc(-c3cn(CC#N)nc3C(F)(F)F)n2C)ccc1C(=O)N1CCN(C(=O)[C@H]2C[C@H](N)C2)CC1 [Example 340, N-[4-[4-(3-aminocyclobutanecarbonyl)piper-azine-1-carbonyl]-3-ethyl-phenyl]-5-[1-(cyanomethyl)-3-(trifluoromethyl)pyrazol-4-yl]-1-methyl-imidazole-2-carboxamide; formic acid]
16 | 0.442 µM | Cn1c(-c2cn(CC#N)nc2C(F)(F)F)cnc1C(=O)Nc1ccc(C(=O)N2CCN(C(=O)NCC3(O)CNC3)CC2)c(Cl)c1 [Example 343, 4-[2-chloro-4-[[5-[1-(cyanomethyl)-3-(trifluoromethyl)pyrazol-4-yl]-1-methyl-imidazole-2-carbonyl]amino]benzoyl]-N-[(3-hydroxyazetidin-3-yl)methyl]piperazine-1-carboxamide; formic acid]
17 | 0.447 µM | Cn1c(-c2cn(C3CC3)nc2C(F)(F)F)cnc1C(=O)Nc1ccc(C(=O)N2CCN(C(=O)[C@H]3CCN3)CC2)c(Cl)c1 [Example 348, (R)-N-(4-(4-(azetidine-2-carbonyl)piperazine-1-carbonyl)-3-chlorophenyl)-5-(1-cyclopropyl-3-(trifluoromethyl)-1H-pyrazol-4-yl)-1-methyl-1H-imidazole-2-carboxamide hydrochloride]
18 | 0.449 µM | Cn1c(-c2cn(C3CC3)nc2C(F)(F)F)cnc1C(=O)Nc1ccc(C(=O)N2CCN(C(=O)N3CC[C@@H](N)C3)CC2)c(Cl)c1 [Example 349, (R)-N-(4-(4-(3-aminopyrrolidine-1-carbonyl)piperazine-1-carbonyl)-3-chlorophenyl)-5-(1-cyclopropyl-3-(trifluoromethyl)-1H-pyrazol-4-yl)-1-methyl-1H-imidazole-2-carboxamide formate]
19 | 0.453 µM | Cn1c(-c2cn(CC#N)nc2C(F)(F)F)cnc1C(=O)Nc1ccc(C(=O)N[C@H]2CC[C@@H](N)CC2)c(Cl)c1 [Example 351, N-[4-[(4-aminocyclohexyl)carbamoyl]-3-chlorophenyl]-5-[1-(cyanomethyl)-3-(trifluoromethyl)pyrazol-4-yl]-1-methylimidazole-2-carboxamide;2,2,2-trifluoroacetic acid]
20 | 0.458 µM | Cn1c(-c2cn(CCC3CC3)nc2C(F)(F)F)cnc1C(=O)Nc1ccc(C(=O)N2CCN(C(=O)C3CCNCC3)CC2)c(Cl)c1 [Example 352, N-(3-chloro-4-(4-(piperidine-4-carbonyl)piperazine-1-carbonyl)phenyl)-5-(1-(2-cyclopropylethyl)-3-(trifluoromethyl)-1H-pyrazol-4-yl)-1-methyl-1H-imidazole-2-carboxamide hydrochloride]
21 | 0.463 µM | CC1CN(C(=O)N[C@H]2C[C@@H](NC(=O)c3ccc(NC(=O)c4ncc(-c5cn(CC#N)nc5C(F)(F)F)n4C)cc3Cl)C2)CCN1 (some centres unmarked) [Example 354, N-[3-[[2-chloro-4-[[5-[1-(cyanomethyl)-3-(trifluoromethyl)pyrazol-4-yl]-1-methyl-imidazole-2-carbonyl]amino]benzoyl]amino]cyclobutyl]-3-methyl-piperazine-1-carboxamide; formic acid]
22 | 0.464 µM | Cn1c(-c2cn(CC#N)nc2C(F)(F)F)cnc1C(=O)Nc1ccc(C(=O)N2CCN(C(=O)[C@H]3C[C@H](N)C3)CC2)c(Cl)c1 [Example 355, N-[4-[4-(3-aminocyclobutanecarbonyl)piper-azine-1-carbonyl]-3-chlorophenyl]-5-[1-(cyanomethyl)-3-(trifluoromethyl)pyrazol-4-yl]-1-methylimidazole-2-carboxamide;trihydrochloride]
23 | 0.467 µM | Cn1c(-c2cn(CC#N)nc2C(F)(F)F)cnc1C(=O)Nc1ccc(C(=O)N[C@H]2C[C@@H](NC(=O)N3CCC(CN)C3)C2)c(Cl)c1 (some centres unmarked) [Example 359, N-[4-[[3-[[3-(aminomethyl)pyrrolidine-1-carbonyl]amino]cyclobutyl]car-bamoyl]-3-chloro-phenyl]-5-[1-(cyanomethyl)-3-(trifluoromethyl)pyrazol-4-yl]-1-methyl-imidazole-2-carboxamide; formic acid]
